Measured values published in ChEMBL document CHEMBL6177984, “Pyrazolo[1,5-a]pyrimidine-Based Type-I Photosensitizer as an Efficient Pyroptosis Inducer for Tumor Ablation” (J Med Chem, 2025).
Calls of active or inactive are those of the source.

Assays:
MDA-MB-231 [1] = experiment: (§1) Photocytotoxicity in human MDA-MB-231 cells assessed as cell viability preincubated with compound for 1 hr followed by light irradiated with 400 to 700 nm 100 mW/cm^2 for 10 mins and measured after 24 hrs by CCK-8 assay; type: functional, cell-based; conditions: MDA-MB-231, light or radiation study
[2] = Dark cytotoxicity against human MDA-MB-231 cells assessed as cell viability incubated for 24 hrs by CCK8 assay; type: toxicity, cell-based
MDA-MB-231 [3] = experiment: Dark cytotoxicity against human MDA-MB-231 cells assessed as cell viability at 1 uM incubated for 24 hrs by CCK8 assay; type: toxicity, cell-based; conditions: mda-mb-231, 24 h
MDA-MB-231 [4] = experiment: Photocytotoxicity in human MDA-MB-231 cells assessed as cell viability preincubated with compound for 1 hr followed by light irradiated with 400 to 700 nm 100 mW/cm^2 for 10 mins and measured after 24 hrs under hypoxic condition by CCK-8 assay; type: functional, cell-based; conditions: MDA-MB-231, light or radiation study
MDA-MB-231 [5] = experiment: Upregulation of cleaved caspase expression in human MDA-MB-231 cells at 0.5 to 1 uM preincubated with compound for 1 hr followed by light irradiated with 400 to 700 nm 100 mW/cm^2 for 10 mins and measured after 3 hrs by Western blot analysis; type: functional, cell-based; conditions: dose 0.5-1 µM, time 250.0 min
MDA-MB-231 [6] = experiment: Induction of ROS production in human MDA-MB-231 cells assessed as increase in red fluorescence intensity at 0.3 uM preincubated with compound for 1 hr followed by light irradiation with 400 to 700 nm 100 mW/cm2 for 10 mins by DHE fluorescent probe based flow cytometry; type: functional, cell-based; conditions: time 70.0 min
[7] = Drug uptake in human MDA-MB-231 cells at 2 uM measured at 1 hr by flow cytometry analysis; type: ADME, cell-based; conditions: mda-mb-231, 1 h
[8] = Toxicity in BALB/c mouse implanted with mouse 4T1 cells assessed as liver damage at 1 mg/kg, iv using self assembled nanoparticle as source of compound measured up to 16 days by H and E staining based analysis; type: organism-based; conditions: in vivo, 384 h, time < 16 day
MDA-MB-231 [9] = experiment: Induction of pyroptosis in human MDA-MB-231 cells assessed as change in LDH level at 0.5 uM preincubated with compound for 1 hr followed by light irradiated with 400 to 700 nm 100 mW/cm^2 for 10 mins and measured after 12 to 24 hrs; type: functional, cell-based; conditions: time 790-1510 min
MDA-MB-231 [10] = experiment: Effect on caspase-3 expression in human MDA-MB-231 cells at 0.5 to 1 uM incubated for 3 hrs by Western blot analysis; type: functional, cell-based; conditions: dose 0.5-1 µM
MDA-MB-231 [11] = experiment: Induction of ROS production in human MDA-MB-231 cells assessed as increase in green fluorescence intensity at 0.3 uM preincubated with compound for 1 hr followed by light irradiation with 400 to 700 nm 100 mW/cm2 for 10 mins by HPF fluorescent probe based flow cytometry; type: functional, cell-based; conditions: time 70.0 min
MDA-MB-231 [12] = experiment: Induction of apoptosis in human MDA-MB-231 cells assessed as cell death by flow cytometry analysis; type: functional, cell-based
MDA-MB-231 [13] = experiment: Induction of pyroptosis in human MDA-MB-231 cells assessed as increase in IL-1beta content at 0.5 uM preincubated with compound for 1 hr followed by light irradiated with 400 to 700 nm 100 mW/cm^2 for 10 mins and measured after 12 to 20 hrs; type: functional, cell-based; conditions: time 790-1270 min
MDA-MB-231 [14] = experiment: Photocytotoxicity in human MDA-MB-231 cells assessed as reduction in ATP level at 0.5 uM preincubated with compound for 6 hrs followed by light irradiated with 400 to 700 nm 100 mW/cm^2 for 10 mins; type: functional, cell-based; conditions: time 370.0 min
MDA-MB-231 [15] = experiment: Induction of pyroptosis in human MDA-MB-231 cells assessed as formation of bubble-like protrusion on plasma membrane at 0.5 uM preincubated with compound for 1 hr followed by light irradiated with 400 to 700 nm 100 mW/cm^2 for 10 mins and measured after 6 hrs by DiO staining based confocal microscopic analysis; type: functional, cell-based; conditions: time 430.0 min
MDA-MB-231 [16] = experiment: Induction of ROS production in human MDA-MB-231 cells assessed as increase in […] fluorescence intensity at 0.3 uM preincubated with compound for 1 hr followed by light irradiation with 400 to 700 nm 100 mW/cm2 for 10 mins by DHE fluorescent probe based flow cytometry; type: functional, cell-based; conditions: time 70.0 min
MDA-MB-231 [17] = experiment: Upregulation of N-terminal GSDME expression in human MDA-MB-231 cells at 0.5 to 1 uM preincubated with compound for 1 hr followed by light irradiated with 400 to 700 nm 100 mW/cm^2 for 10 mins and measured after 6 hrs by Western blot analysis; type: functional, cell-based; conditions: dose 0.5-1 µM, time 430.0 min
[18] = Toxicity in BALB/c mouse implanted with mouse 4T1 cells assessed as change in body weight at 1 mg/kg, iv using self assembled nanoparticle as source of compound measured up to 16 days; type: organism-based; conditions: in vivo, 384 h, time < 16 day
MDA-MB-231 [19] = experiment: (§2) Induction of pyroptosis mediated immunogenic cell death in human MDA-MB-231 cells assessed as HMGB1 release from nucleus at 0.5 uM preincubated with compound for 1 hr followed by light irradiated with 400 to 700 nm 100 mW/cm^2 for 10 mins and measured after 18 hrs; type: functional, cell-based; conditions: time 1150.0 min
MDA-MB-231 [20] = experiment: Induction of pyroptosis in human MDA-MB-231 cells assessed as increase in IL-18 content at 0.5 uM preincubated with compound for 1 hr followed by light irradiated with 400 to 700 nm 100 mW/cm^2 for 10 mins and measured after 12 to 20 hrs; type: functional, cell-based; conditions: time 790-1270 min
MDA-MB-231 [21] = experiment: as §1, with “viability by measuring green fluorescence intensity at 0.5 uM” for “viability”, “Calcein-AM staining based confocal microscopic analysis” for “CCK-8 assay”; type: functional; conditions: time 1510.0 min
MDA-MB-231 [22] = experiment: Induction of pyroptosis mediated immunogenic cell death in human MDA-MB-231 cells assessed as increase in CRT exposure on cell membrane at 0.5 uM preincubated with compound for 1 hr followed by light irradiated with 400 to 700 nm 100 mW/cm^2 for 10 mins and measured after 18 hrs; type: functional, cell-based; conditions: time 1150.0 min
4T1 [23] = experiment: (§3) Antitumor activity against mouse 4T1 cells implanted in BALB/c mouse assessed as increase CD4+ CD8+ cells in lymph at 1 mg/kg, iv using self assembled nanoparticle as source of compound preincubated with compound for 3 hrs followed by irradiation with 400 to 700 nm 100 mW/cm2 for 5 mins and measured after 14 days by flow cytometry analysis; type: functional, organism-based; conditions: time 20345.0 min
[24] = Toxicity in BALB/c mouse implanted with mouse 4T1 cells assessed as spleen damage at 1 mg/kg, iv using self assembled nanoparticle as source of compound measured up to 16 days by H and E staining based analysis; type: organism-based; conditions: in vivo, 384 h, time < 16 day
4T1 [25] = experiment: as §3, with “spleen” for “lymph”; type: functional, organism-based; conditions: time 20345.0 min
MDA-MB-231 [26] = experiment: as §1, with “death by measuring red fluorescence intensity at 0.5 uM” for “viability”, “PI staining based confocal microscopic analysis” for “CCK-8 assay”; type: functional; conditions: time 1510.0 min
[27] = Toxicity in BALB/c mouse implanted with mouse 4T1 cells assessed as heart damage at 1 mg/kg, iv using self assembled nanoparticle as source of compound measured up to 16 days by H and E staining based analysis; type: organism-based; conditions: in vivo, 384 h, time < 16 day
4T1 [28] = experiment: Induction of pyroptosis in mouse 4T1 cells preincubated with compound for 1 hr followed by light irradiated with 400 to 700 nm 100 mW/cm^2 for 10 mins; type: functional, cell-based; conditions: time 70.0 min
[29] = Induction of ROS generation in BPS buffer assessed as increase in superoxide anion radical level by measuring increase in DHR123 fluorescence intensity at 10 uM irradiated with 400 to 700 nm 20 mW/cm2 light by DHR123 probe based fluorescence spectra analysis; type: functional; conditions: time <= 10.0 min
MDA-MB-231 [30] = experiment: as §2, with “increase in ATP” for “HMGB1”, “release” for “release from nucleus”, “6 to 12” for “18”, “hrs by microplate luminometer analysis” for “hrs”; type: functional, cell-based; conditions: time 430-790 min
[31] = Induction of ROS generation in BPS buffer assessed as increase in singlet oxygen level by measuring reduction in ABDA absorption peak at 10 uM irradiated with 400 to 700 nm 20 mW/cm2 light […]; type: functional
4T1 [32] = experiment: Antitumor activity against mouse 4T1 cells implanted in BALB/c mouse at 1 mg/kg, iv using self assembled nanoparticle as source of compound measured at 3 hrs; type: functional, organism-based
[33] = Toxicity in BALB/c mouse implanted with mouse 4T1 cells assessed as lung damage at 1 mg/kg, iv using self assembled nanoparticle as source of compound measured up to 16 days by H and E staining based analysis; type: organism-based; conditions: in vivo, 384 h, time < 16 day
4T1 [34] = experiment: as §3, with “increase” for “increase CD4+ CD8+ cells”, “caspase-3 level” for “lymph”, “days” for “days by flow cytometry analysis”; type: functional, organism-based; conditions: time 20345.0 min
MDA-MB-231 [35] = experiment: Induction of ROS production in human MDA-MB-231 cells assessed as increase in red fluorescence intensity at 0.3 uM preincubated with compound for 1 hr followed by light irradiation with 400 to 700 nm 100 mW/cm2 for 10 mins by […] fluorescent probe based flow cytometry; type: functional, cell-based; conditions: time 70.0 min
[36] = Toxicity in BALB/c mouse implanted with mouse 4T1 cells assessed as kidney damage at 1 mg/kg, iv using self assembled nanoparticle as source of compound measured up to 16 days by H and E staining based analysis; type: organism-based; conditions: in vivo, 384 h, time < 16 day
MDA-MB-231 [37] = experiment: Effect on GSDME expression in human MDA-MB-231 cells at 0.5 to 1 uM incubated for 3 hrs by Western blot analysis; type: functional, cell-based; conditions: dose 0.5-1 µM
MDA-MB-231 [38] = experiment: Induction of ROS production in human MDA-MB-231 cells assessed as increase in intracellular OH level at 0.3 uM preincubated with compound for 1 hr followed by light irradiation with 400 to 700 nm 100 mW/cm2 for 10 mins by HPF fluorescent probe based flow cytometry; type: functional, cell-based; conditions: time 70.0 min
4T1 [39] = experiment: Photocytotoxicity in mouse 4T1 cells assessed as cell viability up to 10 uM preincubated with compound for 1 hr followed by light irradiated with 400 to 700 nm 100 mW/cm^2 for 10 mins and measured after 24 hrs by CCK-8 assay; type: functional, cell-based; conditions: time 1510.0 min
MDA-MB-231 [40] = experiment: Photocytotoxicity in human MDA-MB-231 cells assessed as cell viability at 1 uM preincubated with compound for 1 hr followed by light irradiated with 400 to 700 nm 100 mW/cm^2 for 10 mins and measured after 24 hrs by CCK-8 assay; type: functional, cell-based; conditions: time 1510.0 min
MDA-MB-231 [41] = experiment: Induction of pyroptosis in human MDA-MB-231 cells assessed as swelling bubble formation at 0.5 uM preincubated with compound for 3 hrs followed by light irradiated with 400 to 700 nm 100 mW/cm^2 for 10 mins by confocal microscopic analysis; type: functional, cell-based; conditions: time 190.0 min
[42] = Induction of ROS generation in BPS buffer assessed as increase in superoxide anion radical level at 10 uM irradiated with 525 nm 20 mW/cm2 light by DHR123 probe based fluorescence spectra analysis; type: functional

CC[n+]1c(/C=C/c2ccc(-c3cnn4ccc(N5CCOCC5)nc34)o2)sc2ccccc21
> 10 µM: IC50 at 24 h [2]
1.01 µM: IC50 (MDA-MB-231 [1])

CC[n+]1ccc(/C=C/c2ccc(-c3cnn4ccc(N5CCOCC5)nc34)s2)cc1.[Br-]
Non-toxic: Activity (MDA-MB-231 [3])
> 10 µM: IC50 (MDA-MB-231 [1]) | IC50 at 24 h [2]

CC[n+]1c(/C=C/c2ccc(-c3cnn4ccc(N5CCOCC5)nc34)s2)sc2ccccc21.[I-]
0.22 µM: IC50 (MDA-MB-231 [1])
Active: Drug uptake [7]
Non-toxic: Activity [8] | Activity [18] | Activity [24] | Activity [27] | Activity (MDA-MB-231 [3]) | Activity [33] | Activity [36]
> 20 µM: IC50 at 24 h [2]
active: Activity (MDA-MB-231 [5]) | Activity (MDA-MB-231 [6]) | Activity (MDA-MB-231 [9]) | Activity (MDA-MB-231 [11]) | Activity (MDA-MB-231 [12]) | Activity (MDA-MB-231 [13]) | Activity (MDA-MB-231 [14]) | Activity (MDA-MB-231 [15]) | Activity (MDA-MB-231 [16]) | Activity (MDA-MB-231 [17]) | Activity (MDA-MB-231 [19]) | Activity (MDA-MB-231 [20]) | Activity (MDA-MB-231 [21]) | Activity (MDA-MB-231 [22]) | Activity (4T1 [23]) | Activity (4T1 [25]) | Activity (MDA-MB-231 [26]) | Activity (4T1 [28]) | Activity [29] Time-dependent-effect | Activity (MDA-MB-231 [30]) | Activity [31] | Activity (4T1 [32]) | Activity (4T1 [34]) | Activity (MDA-MB-231 [35]) | Activity (MDA-MB-231 [38]) | Activity (4T1 [39]) | Activity (MDA-MB-231 [40]) | Activity (MDA-MB-231 [41])
inactive: Activity (MDA-MB-231 [10]) | Activity (MDA-MB-231 [37])
1.1 µM: IC50 (MDA-MB-231 [4])

COC(=O)c1ccccc1C1c2ccc(N)cc2Oc2cc(N)ccc21
active: Activity [42]
